Patent US7368430B2, “Selective inhibitors of nuclear factor-κB activation and uses thereof” (Research Development Foundation, priority 2003, dated 2008)
Where a SMILES comes first, the peptide text is derived from it.

Key:
[1] = tested on: KBM-5 cells; assay: Cytotoxicity assay (MTT assay); assay type: cell-based; details: 100 μM peptide; for effect on TNF-induced cytotoxicity (MTT): KBM-5 cells, TNF 72 h (FIG. 7A)
Experimental: Five thousand KBM-5 cells were seeded in triplicate in 96-well plates. Cells were pretreated with 100 μM PTD-p65-P1, and then incubated with the indicated concentrations of TNF for 72 hour. Thereafter, cell viability was analyzed by MTT assay.
Five thousand cells were seeded in triplicate in 96-well plates. Cells were pretreated with 100 μM protein transduction domain-p65-P1 and then incubated with indicated concentrations of TNF or doxorubicin or cisplatin for 72 hr. Thereafter, cell viability was analyzed by the MTT method.
The cytotoxic effects of […] were determined by the MTT uptake method as described (Manna et al., 2000a). Briefly, 5000 cells were incubated with synthetic peptides for 1 hour in triplicate in 96-well plates, and then treated with various concentration of TNF for 72 hours at 37° C. Thereafter, MTT solution was added to each well. After a 2-hr incubation at 37° C., extraction buffer (20% SDS, 50% dimethylformamide) was added, the cells were incubated overnight at 37° C., and then the OD was measured at 570 nm using a 96-well multiscanner (Dynex Technologies, MRX Revelation; Chantilly, Va.).

[2] = target: T1, NF-κB (p50-p65) binding to DNA (Homo sapiens, UniProt Q04206); assay: EMSA of NF-κB binding to DNA, nuclear extracts of TNF-treated cells incubated with peptides in vitro; assay type: biochemical; details: nuclear extracts of TNF-treated KBM-5 cells incubated 30 min with peptides (FIG. 2A)
T1 construct: endogenous in cells; host or cells: KBM-5 cells, TNF-treated, nuclear extract
Experimental: Nuclear extracts were prepared from TNF-treated cells, incubated for 30 min with various concentrations of peptides, and then assayed for NF-κB activation by EMSA.
NF-κB activation was examined by electrophoretic mobility shift assays as described (Chaturvedi et al., 1994; Takada and Aggarwal). Briefly, nuclear extracts prepared from TNF-treated cells (1×10^6/ml) were incubated with ^32P-end-labeled 45-mer double-stranded NF-κB oligonucleotide (10 ug of protein with 16 fmol of DNA) from the human immunodeficiency virus long terminal repeat, 5′-[…] CAGGGAGGCGTGG-3′ (SEQ ID NO. 1, boldface indicates NF-κB binding sites) for 30 min at 37° C., and the DNA-protein complex formed was separated from free oligonucleotide on 6.6% native polyacrylamide gels. A double-stranded mutated oligonucleotide, 5′-[…]-3′(SEQ ID NO. 2) was used to examine the specificity of binding of NF-κB to the DNA. The specificity of binding was also examined by competition with unlabeled oligonucleotide.
The dose-dependent effect of protein transduction domain-p65-P1 and p65-P1 on p50-p65 binding to DNA was investigated. […] The protein transduction domain alone had no effect.

[3] = tested on: NF-κB; assay: EMSA of NF-κB activation in KBM-5 cells preincubated with peptides; assay type: cell-based; details: various concentrations of peptides 1 h, 0.1 nM TNF 30 min (FIG. 3C)
Experimental: NF-κB activation was examined by electrophoretic mobility shift assays as described (Chaturvedi et al., 1994; Takada and Aggarwal). Briefly, nuclear extracts prepared from TNF-treated cells (1×10^6/ml) were incubated with ^32P-end-labeled 45-mer double-stranded NF-κB oligonucleotide (10 ug of protein with 16 fmol of DNA) from the human immunodeficiency virus long terminal repeat, 5′-[…] CAGGGAGGCGTGG-3′ (SEQ ID NO. 1, boldface indicates NF-κB binding sites) for 30 min at 37° C., and the DNA-protein complex formed was separated from free oligonucleotide on 6.6% native polyacrylamide gels. […]
To determine the effects of peptide containing Ser 276 (PTD-p65-P1), KBM-5 cells was preincubated with the peptides for 1 h, and then treated with 0.1 nM TNF for the indicated times. Nuclear extracts were prepared, and NF-κB activation was analyzed by electrophoretic mobility shift assays (EMSA). […]
Lipopolysaccharide, IL-1, okadaic acid, PMA, H2O2, and cigarette smoke condensate are potent activators of NF-κB, but the mechanisms differ. […] Cells were preincubated with 150 μM protein transduction domain-p65-P1 for 1 h, treated with 0.1 nM TNF, 1 μg/ml LPS, 100 ng/ml IL-1, 500 nM okadaic acid, 10 ng/ml PMA, 500 μM H2O2, or 1 μg/ml cigarette smoke condensate and then analyzed for NF-κB activation by EMSA.

[4] = target: T2, IKK complex (Homo sapiens, UniProt O14920+O15111); assay: Cell-free phosphorylation of p65 peptides by immunoprecipitated IKK complex; assay type: biochemical; details: 10 μg of peptides as substrate (FIG. 5C)
T2 construct: Whole-cell extracts were prepared from TNF-treated cells and immunoprecipitated with antibody against IKK-α; endogenous in cells
Experimental: Whole-cell extracts were prepared from TNF-treated cells and immunoprecipitated with antibody against IKK-α. Thereafter immunocomplex kinase assay was performed in the presence of the peptides as a substrate.
To determine the total amounts of IKK-α and IKK-β in each sample, […] of the whole-cell protein was resolved on 7.5% SDS-PAGE, electrotransferred to a nitrocellulose membrane, and then blotted with either anti-IKK-α or anti-IKK-β antibodies. Cell-free phosphorylation of peptide by IKK was also determined using 10 μg of peptides as a substrate in the kinase reaction mixture described above, and then fractionated on 20% SDS-PAGE in 2×SDS electrophoresis buffer.
p65-P1 and p65-p6 have one or two serine residues respectively. Whether these serine residues can be phosphorylated by IKK was investigated. Whole-cell extracts from TNF-treated cells were immunoprecipitated with antibody against IKK and then immunocomplex kinase assay was performed using p65-peptides as substrates. After reaction, samples were fractionated on 20% SDS-PAGE with 2-fold electrophoresis buffer.

T1 sequence (Q04206 whole entry): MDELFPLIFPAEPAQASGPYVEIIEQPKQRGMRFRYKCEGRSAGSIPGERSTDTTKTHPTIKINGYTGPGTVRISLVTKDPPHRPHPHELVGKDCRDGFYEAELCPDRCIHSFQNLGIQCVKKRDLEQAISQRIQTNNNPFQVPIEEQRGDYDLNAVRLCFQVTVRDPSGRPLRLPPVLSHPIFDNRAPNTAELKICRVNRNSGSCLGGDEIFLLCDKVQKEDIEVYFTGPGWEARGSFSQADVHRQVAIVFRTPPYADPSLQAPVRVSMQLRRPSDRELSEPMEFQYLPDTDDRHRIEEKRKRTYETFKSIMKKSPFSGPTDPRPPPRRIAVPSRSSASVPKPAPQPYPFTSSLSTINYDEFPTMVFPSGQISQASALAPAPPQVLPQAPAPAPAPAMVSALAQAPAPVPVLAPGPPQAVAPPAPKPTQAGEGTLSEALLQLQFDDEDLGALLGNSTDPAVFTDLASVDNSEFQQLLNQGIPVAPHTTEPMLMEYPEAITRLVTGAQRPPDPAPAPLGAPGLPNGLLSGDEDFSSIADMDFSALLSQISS
T2 sequence (O15111 whole entry): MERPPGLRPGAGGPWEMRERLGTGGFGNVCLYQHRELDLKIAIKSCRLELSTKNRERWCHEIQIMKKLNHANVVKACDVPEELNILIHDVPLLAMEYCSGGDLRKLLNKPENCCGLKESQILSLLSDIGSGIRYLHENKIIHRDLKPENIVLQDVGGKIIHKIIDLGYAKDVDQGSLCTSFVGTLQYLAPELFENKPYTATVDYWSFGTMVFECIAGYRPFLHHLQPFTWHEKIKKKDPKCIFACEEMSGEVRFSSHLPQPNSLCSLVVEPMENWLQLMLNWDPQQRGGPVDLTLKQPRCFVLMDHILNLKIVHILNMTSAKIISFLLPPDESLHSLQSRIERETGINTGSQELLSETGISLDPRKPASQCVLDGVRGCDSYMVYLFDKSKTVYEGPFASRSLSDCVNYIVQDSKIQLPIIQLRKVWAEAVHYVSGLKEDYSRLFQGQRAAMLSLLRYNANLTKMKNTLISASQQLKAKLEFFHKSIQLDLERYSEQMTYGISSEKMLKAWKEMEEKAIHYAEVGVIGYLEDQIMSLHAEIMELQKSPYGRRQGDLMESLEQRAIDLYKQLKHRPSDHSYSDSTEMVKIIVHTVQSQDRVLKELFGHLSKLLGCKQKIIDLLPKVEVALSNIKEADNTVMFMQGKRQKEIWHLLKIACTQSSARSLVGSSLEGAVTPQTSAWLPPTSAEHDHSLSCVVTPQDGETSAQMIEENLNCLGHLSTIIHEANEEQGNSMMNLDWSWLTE
T2 sequence (O14920 whole entry): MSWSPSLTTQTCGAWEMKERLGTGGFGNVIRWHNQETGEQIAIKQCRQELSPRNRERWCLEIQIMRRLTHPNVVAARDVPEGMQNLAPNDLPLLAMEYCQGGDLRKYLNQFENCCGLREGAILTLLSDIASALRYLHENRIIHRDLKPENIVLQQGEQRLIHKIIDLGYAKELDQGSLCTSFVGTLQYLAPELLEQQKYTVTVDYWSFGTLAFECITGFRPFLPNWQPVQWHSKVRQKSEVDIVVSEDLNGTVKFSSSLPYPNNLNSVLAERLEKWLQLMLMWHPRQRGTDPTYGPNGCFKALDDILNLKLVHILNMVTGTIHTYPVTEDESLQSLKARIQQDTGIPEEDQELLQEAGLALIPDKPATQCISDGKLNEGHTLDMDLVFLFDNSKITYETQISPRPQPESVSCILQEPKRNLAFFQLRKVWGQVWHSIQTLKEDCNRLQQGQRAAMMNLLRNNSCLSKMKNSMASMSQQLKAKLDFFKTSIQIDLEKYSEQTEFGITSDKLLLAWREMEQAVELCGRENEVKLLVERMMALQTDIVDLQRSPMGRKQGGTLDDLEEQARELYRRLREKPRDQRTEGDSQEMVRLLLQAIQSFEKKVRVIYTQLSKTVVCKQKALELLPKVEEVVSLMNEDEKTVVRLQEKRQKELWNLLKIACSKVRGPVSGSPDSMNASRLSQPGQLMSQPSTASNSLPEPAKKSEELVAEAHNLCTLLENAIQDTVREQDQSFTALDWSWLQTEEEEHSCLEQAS
T2 sequence (Q9Y6K9 whole entry partner): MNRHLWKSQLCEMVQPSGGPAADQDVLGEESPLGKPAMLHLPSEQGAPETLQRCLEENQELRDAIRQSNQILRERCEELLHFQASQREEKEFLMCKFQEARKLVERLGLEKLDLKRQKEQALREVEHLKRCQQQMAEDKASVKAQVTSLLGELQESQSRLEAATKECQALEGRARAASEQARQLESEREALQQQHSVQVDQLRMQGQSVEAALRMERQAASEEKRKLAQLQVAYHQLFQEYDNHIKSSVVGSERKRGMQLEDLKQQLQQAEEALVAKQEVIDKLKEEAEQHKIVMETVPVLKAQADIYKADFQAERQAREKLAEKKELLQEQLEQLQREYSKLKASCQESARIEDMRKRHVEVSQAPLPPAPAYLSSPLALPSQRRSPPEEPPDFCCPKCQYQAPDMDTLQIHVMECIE

| inhibition of NF-κB binding to the DNA in vitro [2] | Compound | effect on TNF-induced cytotoxicity (MTT) [1] | further results |
| --- | --- | --- | --- |
|  | CC(C)C[C@H](NC(=O)[C@H](CCC(=O)O)NC(=O)[C@H](CCCNC(=N)N)NC(=O)[C@H](CC(=O)O)NC(=O)[C@H](CO)NC(=O)[C@@H]1CCCN1C(=O)[C@H](CCCNC(=N)N)NC(=O)[C@H](CCCNC(=N)N)NC(=O)[C@H](CC(C)C)NC(=O)[C@@H](N)CCC(N)=O)C(=O)N[C@@H](CO)C(=O)N[C@@H](CCC(=O)O)C(=O)O [p65-P1, QLRRPSDRELSE] (H-QLRRPSDRELSE-OH) | had no effect |  |
| did not inhibit | p65-P7: Peptide in which Ser 529 was mutated (NGLLAGDEDFSS; CHAIN p65-P7, mutated peptide derived from the p65 subunit of NF-kB) |  |  |
|  | CC[C@H](C)[C@H](NC(=O)[C@H](CCCCN)NC(=O)[C@@H](NC(=O)[C@H](CCC(N)=O)NC(=O)[C@H](CCCNC(=N)N)NC(=O)[C@@H](N)CC(=O)O)[C@@H](C)CC)C(=O)N[C@@H](Cc1c[nH]c2ccccc12)C(=O)N[C@@H](Cc1ccccc1)C(=O)N[C@@H](CCC(N)=O)C(=O)N[C@@H](CC(N)=O)C(=O)N[C@@H](CC(N)=O)C(=O)N[C@@H](CCCNC(=N)N)C(=O)N[C@@H](CCCNC(=N)N)C(=O)N[C@@H](CCSC)C(=O)N[C@@H](CCCCN)C(=O)N[C@@H](Cc1c[nH]c2ccccc12)C(=O)N[C@@H](CCCCN)C(=O)N[C@@H](CCCCN)C(=O)O [protein transduction domain, reference compound] (H-DRQIKIWFQNNRRMKWKK-OH) | had no effect |  |
| inactive | p65-P4: Peptide in which five amino acid residues were deleted from the C-terminus (QLRRPSD; CHAIN p65-P4, mutated peptide derived from the p65 subunit of NF-kB) |  |  |
|  | PTD-p65-P6: SEQ ID NO. 10; antennapedia protein transduction domain linked to amino acid 525-537 of the p65 subunit (DRQIKIWFQNNRRMKWKKNGLLSGDEDFSS; CHAIN PTD-p65-P6, cell permeable NF-kb inhibitor) |  | effect on TNF-induced NF-κB activation (EMSA, dose response) [3]: inhibited TNF-induced NF-κB activation in a dose dependent manner |
|  | p65-P6: SEQ ID NO. 11; p65 peptide containing Ser 529 and 536, amino acid 525-537 of the p65 subunit (NGLLSGDEDFSS; CHAIN p65-P6, peptide derived from the p65 subunit of NF-kB) |  | effect on TNF-induced NF-κB activation (EMSA, dose response) [3]: Neither a protein transduction domain nor p65-P6 alone had any effect; phosphorylation of the peptide by IKK complex [4]: can phosphorylate |
| did not inhibit | p65-P2: Peptide in which Ser 276 was mutated (QLRRPADRELSE; CHAIN p65-P2, mutated peptide derived from the p65 subunit of NF-kB) |  |  |
| did not inhibit | p65-p8: Peptide in which Ser 536 was mutated (NGLLSGDEDFSA; CHAIN p65-P8, mutated peptide derived from the p65 subunit of NF-kB) |  |  |
| inactive | p65-P5: Peptide in which three amino acid residues were deleted from the N-terminus (RPSDRELSE; CHAIN p65-P5, mutated peptide derived from the p65 subunit of NF-kB) |  |  |
|  | CC[C@H](C)[C@H](NC(=O)[C@H](CCCCN)NC(=O)[C@@H](NC(=O)[C@H](CCC(N)=O)NC(=O)[C@H](CCCNC(=N)N)NC(=O)[C@@H](N)CC(=O)O)[C@@H](C)CC)C(=O)N[C@@H](Cc1c[nH]c2ccccc12)C(=O)N[C@@H](Cc1ccccc1)C(=O)N[C@@H](CCC(N)=O)C(=O)N[C@@H](CC(N)=O)C(=O)N[C@@H](CC(N)=O)C(=O)N[C@@H](CCCNC(=N)N)C(=O)N[C@@H](CCCNC(=N)N)C(=O)N[C@@H](CCSC)C(=O)N[C@@H](CCCCN)C(=O)N[C@@H](Cc1c[nH]c2ccccc12)C(=O)N[C@@H](CCCCN)C(=O)N[C@@H](CCCCN)C(=O)N[C@@H](CCC(N)=O)C(=O)N[C@@H](CC(C)C)C(=O)N[C@@H](CCCNC(=N)N)C(=O)N[C@@H](CCCNC(=N)N)C(=O)N1CCC[C@H]1C(=O)N[C@@H](CO)C(=O)N[C@@H](CC(=O)O)C(=O)N[C@@H](CCCNC(=N)N)C(=O)N[C@@H](CCC(=O)O)C(=O)N[C@@H](CC(C)C)C(=O)N[C@@H](CO)C(=O)N[C@@H](CCC(=O)O)C(=O)O [PTD-p65-P1] (H-DRQIKIWFQNNRRMKWKKQLRRPSDRELSE-OH) | enhanced TNF-induced cytotoxicity | effect on cisplatin-induced cytotoxicity (MTT) ([1]; cisplatin 72 hr (FIG. 7D bottom panel)): potentiated; effect on doxorubicin-induced cytotoxicity (MTT) ([1]; doxorubicin 72 hr (FIG. 7D top panel)): potentiated |
